Assay results: patent publication US9901577B2, “Oxoquinazolinyl-butanamide derivatives” (MERCK PATENT GMBH, priority 2013, dated 2018)
Read-outs that look alike come from different tables or passages of the source.

Tests used:
TNKS1 = biological target: T1, TNKS1 (Homo sapiens, UniProt O95271); test: TNKS1 activity ELISA (autoparsylation assay); assay type: biochemical
T1 construct: GST-tagged Tnks-1 (1023-1327 aa, prepared in-house); made in house
Experimental: (§1) Description of the TNKS1 and TNKS2 ELISA Assay
(§2) Biochemical Activity Testing of TNKS 1 and 2: Activity ELISA (Autoparsylation Assay)
(§3) For analysis of autoparsylation activity of TNKS 1 and 2 an activity ELISA iss performed: In the first step GST tagged TNKS is captured on a Glutathione coated plate. Then the activity assay with biotinylated NAD is performed in the absence/presence of the compounds. During the enzymatic reaction GST tagged TNKS transfers biotinylated ADP-ribose to itself from biotinylated NAD as co-substrate. For the detection streptavidin-HRP conjugate is added that binds to the biotinylated TNKS and is thereby captured to the plates. The amount of biotinylated resp. autoparsylated TNKS is detected with a luminescence substrate for HRP. The level of the luminescence signal correlates directly with the amount of autoparsylated TNKS and therefore with activity of TNKS.
(§4) The activity ELISA is performed in 384 well Glutathione coated microtiter plates (Express capture Glutathione coated plate, Biocat, Heidelberg, Germany). The plates are pre-equilibrated with PBS. […] The plates are washed 3 times with PBS-Tween-20. The wells are blocked by incubation at room temperature for 20 minutes with 50 μl blocking buffer (PBS, 0.05% Tween-20, 0.5% BSA). Afterwards the plates are washed 3 times with PBS-Tween-20. […] The reaction is stopped by 3 times washing with PBS-Tween-20. For the detection 50 μl of 20 ng/μl Streptavidin, HRP conjugate (MoBiTec, Göttingen, Germany) in PBS/0.05% Tween-20/0.01% BSA are added and the plates are incubated for 30 minutes at room temperature. After three times washing with PBS-Tween-20 50 μl of SuperSignal ELISA Femto Maximum sensitivity substrate solution (ThermoFisherScientific (Pierce), Bonn, Germany) are added. Following a 1 minute incubation at room temperature luminescence signals are measured with an Envision multimode reader (Perkin Elmer LAS Germany GmbH) at 700 nm. The full value used is the inhibitor-free reaction. […] The inhibitory values (IC50) are determined using either the program Symyx Assay Explorer® or Condosseo® from GeneData.

Tankyrase = system: T2, Tankyrase; test: Measurement of cellular inhibition of Tankyrase (Axin2 level in DLD1 cells, Luminex based assay); assay type: cell-based; conditions: read-out: EC50 [M] TNKS cellular assay; DLD1 cells, Axin2 increase, 24 hours
T2 construct: TNKS cellular assay; other: DLD1 cells, Axin2 increase, 24 hours
Experimental: Measurement of Cellular Inhibition of Tankyrase
Cells of the colon carcinoma cell line DLD1 are plated in 96 well plates with 1.5×10^4 cells per well. Next day, cells are treated with a serial dilution of test compound in seven steps as triplicates with a final DMSO concentration of 0.3%. […] The amount of isolated Axin2 protein is determined in a Luminex^200 machine (Luminex Corporation) according to the manufacturer's instruction by counting 100 events per well. […] As controls cells are treated with solvent alone (neutral control) and with a Tankyrase reference inhibitor IWR-2 (3E-06 M) which refers as control for maximum increase of Axin2. For analysis, the obtained data are normalized against the untreated solvent control and fitted for determination of the EC50 values using the Assay Explorer software (Accelrys).

PARP-1 = biological target: T3, PARP-1 (Homo sapiens, UniProt P09874); test: PARP-1 autoparsylation assay (HTRF); assay type: biochemical; conditions: His-tagged Parp-1, autoparsylation
T3 construct: purchased Enzo Life Sciences GmbH, Lörrach, Germany

TNKS2 = biological target: T4, TNKS2 (Homo sapiens, UniProt Q9H2K2); test: TNKS2 activity ELISA (autoparsylation assay); assay type: biochemical
T4 construct: GST-tagged Tnks-2 (873-1166 aa, prepared in-house); made in house
Experimental: as §1, §2, §3, §4

[1] = GST-tagged Tnks-1, read-out: IC50 [M] TNKS1 ELISA
[2] = GST-tagged Tnks-2, read-out: IC50 [M] TNKS2 ELISA

T1 sequence (O95271 1023-1327): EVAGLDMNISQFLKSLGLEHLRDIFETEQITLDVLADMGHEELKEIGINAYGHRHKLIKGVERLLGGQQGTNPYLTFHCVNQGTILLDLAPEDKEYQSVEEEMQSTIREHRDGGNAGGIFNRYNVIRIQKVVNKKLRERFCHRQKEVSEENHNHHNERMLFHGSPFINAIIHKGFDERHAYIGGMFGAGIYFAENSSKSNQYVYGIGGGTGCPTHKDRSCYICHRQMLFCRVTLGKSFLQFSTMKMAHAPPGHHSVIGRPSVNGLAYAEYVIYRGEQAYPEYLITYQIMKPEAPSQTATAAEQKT
T3 sequence (P09874 whole entry): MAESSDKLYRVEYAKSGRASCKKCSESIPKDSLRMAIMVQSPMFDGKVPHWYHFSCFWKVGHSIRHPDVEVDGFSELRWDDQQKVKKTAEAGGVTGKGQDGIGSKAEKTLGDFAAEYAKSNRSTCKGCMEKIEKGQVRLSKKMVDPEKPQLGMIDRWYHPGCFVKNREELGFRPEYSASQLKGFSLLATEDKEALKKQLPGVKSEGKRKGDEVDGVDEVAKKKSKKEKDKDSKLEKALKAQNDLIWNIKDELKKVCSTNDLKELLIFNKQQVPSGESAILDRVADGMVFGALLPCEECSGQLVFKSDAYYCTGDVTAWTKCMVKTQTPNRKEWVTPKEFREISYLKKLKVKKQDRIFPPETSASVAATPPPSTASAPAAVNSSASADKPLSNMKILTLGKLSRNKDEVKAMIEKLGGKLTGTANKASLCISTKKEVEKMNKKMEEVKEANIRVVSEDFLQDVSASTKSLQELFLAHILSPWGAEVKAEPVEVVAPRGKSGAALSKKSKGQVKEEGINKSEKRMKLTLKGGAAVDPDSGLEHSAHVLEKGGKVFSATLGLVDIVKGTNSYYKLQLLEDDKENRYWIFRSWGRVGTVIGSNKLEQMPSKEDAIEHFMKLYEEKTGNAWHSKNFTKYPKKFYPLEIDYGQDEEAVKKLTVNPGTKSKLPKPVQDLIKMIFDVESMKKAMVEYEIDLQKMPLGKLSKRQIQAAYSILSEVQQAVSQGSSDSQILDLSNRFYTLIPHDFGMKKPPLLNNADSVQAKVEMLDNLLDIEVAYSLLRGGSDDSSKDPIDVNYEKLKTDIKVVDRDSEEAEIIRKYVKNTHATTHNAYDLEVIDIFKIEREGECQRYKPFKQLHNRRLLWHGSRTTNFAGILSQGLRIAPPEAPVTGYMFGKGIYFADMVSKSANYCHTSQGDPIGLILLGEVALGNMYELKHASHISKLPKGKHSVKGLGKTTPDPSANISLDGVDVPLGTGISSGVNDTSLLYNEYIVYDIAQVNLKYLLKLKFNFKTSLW
T4 sequence (Q9H2K2 873-1166): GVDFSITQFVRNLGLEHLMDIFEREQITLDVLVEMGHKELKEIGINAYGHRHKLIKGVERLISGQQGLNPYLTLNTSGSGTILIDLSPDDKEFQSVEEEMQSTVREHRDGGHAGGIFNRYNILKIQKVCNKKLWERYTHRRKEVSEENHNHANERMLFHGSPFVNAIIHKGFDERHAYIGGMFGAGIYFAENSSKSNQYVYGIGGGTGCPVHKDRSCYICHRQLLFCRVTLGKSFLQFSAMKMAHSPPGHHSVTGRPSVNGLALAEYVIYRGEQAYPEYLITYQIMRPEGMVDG

| Structure (SMILES) | IC50 (TNKS1) [M] | EC50 (Tankyrase) [M] | IC50 (PARP-1) [nM] | IC50 (TNKS2) [M] | IC50 (TNKS1; [1]) [M] | IC50 (TNKS2; [2]) [M] |
| --- | --- | --- | --- | --- | --- | --- |
| COc1ccc(C(=O)C2CCN(C(=O)CCCc3nc4ccccc4c(=O)[nH]3)CC2)cc1 [Compound A1, 2-{4-[4-(4-methoxy-benzoyl)-piperidin-1-yl]-4-oxo-butyl}-3H-quinazolin-4-one] | 2.3e-10 | 1.6e-09 | 1400 | 1.1e-10 | – | – |
| O=C(c1ccccc1)C1CCN(C(=O)CCCc2nc3ccccc3c(=O)[nH]2)CC1 [Compound A2, 2-[4-(4-benzoyl-piperidin-1-yl)-4-oxo-butyl]-3H-quinazolin-4-one] | – | 6.5e-08 | 730 | – | 7.3e-10 | 5.5e-10 |
| Cc1cc(F)cc2c(=O)[nH]c(CCCC(=O)N3CCC(C(=O)c4ccccc4)CC3)nc12 [Compound A3, 2-[4-(4-benzoyl-piperidin-1-yl)-4-oxo-butyl]-6-fluoro-8-methyl-3H-quinazolin-4-one] | – | 3.4e-09 | 29 | – | 2.2e-10 | 1.3e-10 |
| COc1ccc(C(=O)C2CCN(C(=O)CCCc3nc4c(C)cc(F)cc4c(=O)[nH]3)CC2)cc1 [Compound A4, 6-fluoro-2-{4-[4-(4-methoxy-benzoyl)-piperidin-1-yl]-4-oxo-butyl}-8-methyl-3H-quinazolin-4-one] | – | 5.6e-10 | 170 | – | 6.6e-11 | 8.9e-11 |
| COc1ccc(C(=O)C2CCN(C(=O)CCCc3nc4c(F)cc(F)cc4c(=O)[nH]3)CC2)cc1 [Compound A5, 6,8-difluoro-2-{4-[4-(4-methoxy-benzoyl)-piperidin-1-yl]-4-oxo-butyl}-3H-quinazolin-4-one] | – | 2.6e-09 | 780 | – | 8.7e-11 | 1.6e-10 |
| O=C(c1ccccc1)C1CCN(C(=O)CCCc2nc3c(F)cc(F)cc3c(=O)[nH]2)CC1 [Compound A6, 2-[4-(4-benzoyl-piperidin-1-yl)-4-oxo-butyl]-6,8-difluoro-3H-quinazolin-4-one] | – | – | 650 | – | 3.8e-10 | 9.3e-10 |
| Cc1cccc(C(=O)C2CCN(C(=O)CCCc3nc4ccccc4c(=O)[nH]3)CC2)c1 [Compound A7, 2-{4-[4-(3-methyl-benzoyl)-piperidin-1-yl]-4-oxo-butyl}-3H-quinazolin-4-one] | 2.2e-10 | 2e-08 | 810 | 1.9e-10 | – | – |
| COc1ccc(C(=O)C2CCN(C(=O)CCCc3nc4ccccc4c(=O)[nH]3)CC2)cc1F [Compound A8, 2-{4-[4-(3-fluoro-4-methoxy-benzoyl)-piperidin-1-yl]-4-oxo-butyl}-3H-quinazolin-4-one] | – | 3.4e-09 | 680 | – | 8.5e-11 | 1.5e-10 |
| COc1cccc(C(=O)C2CCN(C(=O)CCCc3nc4ccccc4c(=O)[nH]3)CC2)c1 [Compound A9, 2-{4-[4-(3-methoxy-benzoyl)-piperidin-1-yl]-4-oxo-butyl}-3H-quinazolin-4-one] | – | 1.9e-08 | 740 | – | 1.9e-10 | 3.3e-10 |
| CCn1cc(-c2ccc(C(=O)C3CCN(C(=O)CCCc4nc5ccccc5c(=O)[nH]4)CC3)cc2)cn1 [Compound A10, 2-(4-{4-[4-(1-ethyl-1H-pyrazol-4-yl)-benzoyl]-piperidin-1-yl}-4-oxo-butyl)-3H-quinazolin-4-one] | 1e-10 | 4.9e-09 | 100 | 1.6e-10 | – | – |
| COCCn1cc(-c2ccc(C(=O)C3CCN(C(=O)CCCc4nc5ccccc5c(=O)[nH]4)CC3)cc2)cn1 [Compound A11, 2-[4-(4-{4-[1-(2-methoxy-ethyl)-1H-pyrazol-4-yl]-benzoyl}-piperidin-1-yl)-4-oxo-butyl]-3H-quinazolin-4-one] | – | 7.3e-09 | 300 | – | 5.8e-11 | 1.2e-10 |
| O=C(c1ccc(-c2cnn(CCN3CCCC3)c2)cc1)C1CCN(C(=O)CCCc2nc3ccccc3c(=O)[nH]2)CC1 [Compound A12, 2-[4-oxo-4-(4-{4-[1-(2-pyrrolidin-1-yl-ethyl)-1H-pyrazol-4-yl]-benzoyl}-piperidin-1-yl)-butyl]-3H-quinazolin-4-one] | – | 6.8e-09 | 650 | – | 2.5e-10 | 3.5e-10 |
| COc1ccc(C(=O)C2CCN(C(=O)CCCc3nc4ccccc4c(=O)[nH]3)CC2)cc1C [Compound A13, 2-[4-[4-(4-methoxy-3-methyl-benzoyl)-1-piperidyl]-4-oxo-butyl]-3H-quinazolin-4-one] | – | 8.6e-10 | 990 | – | 1e-10 | 1.3e-10 |
| COc1ccc(C(=O)C2CCN(C(=O)CCCc3nc4c(F)cc(F)cc4c(=O)[nH]3)CC2)cc1C [Compound A14, 6,8-difluoro-2-[4-[4-(4-methoxy-3-methyl-benzoyl)-1-piperidyl]-4-oxo-butyl]-3H-quinazolin-4-one] | – | 3.3e-09 | 1000 | – | 8.6e-11 | 1.6e-10 |
| COc1ccc(C(=O)C2CCN(C(=O)CCCc3nc4c(C)cc(F)cc4c(=O)[nH]3)CC2)cc1C [Compound A15, 6-fluoro-2-[4-[4-(4-methoxy-3-methyl-benzoyl)-1-piperidyl]-4-oxo-butyl]-8-methyl-3H-quinazolin-4-one] | – | 1.4e-09 | 64 | – | 8.8e-11 | 7.4e-11 |
| COc1ccc(C(=O)C2CCN(C(=O)CCCc3nc4ccccc4c(=O)[nH]3)CC2)cn1 [Compound A16, 2-{4-[4-(6-Methoxy-pyridine-3-carbonyl)-piperidin-1-yl]-4-oxo-butyl}-3H-quinazolin-4-one] | – | 1e-08 | 2700 | – | 1.1e-09 | 7.5e-10 |
| N#Cc1ccc(OC2CCN(C(=O)CCCc3nc4ccccc4c(=O)[nH]3)CC2)cc1 [Compound A17, 4-{1-[4-(4-Oxo-3,4-dihydro-quinazolin-2-yl)-butyryl]-piperidin-4-yloxy}-benzonitrile] | 1.5e-07 | 7.2e-07 | 680 | 7.9e-08 | – | – |
| O=C(c1ccc(F)cc1)C1CCN(C(=O)CCCc2nc3ccccc3c(=O)[nH]2)CC1 [Compound A18, 2-{4-[4-(4-Fluoro-benzoyl)-piperidin-1-yl]-4-oxo-butyl}-3H-quinazolin-4-one] | – | 2.1e-08 | 2100 | – | 7e-10 | 6.1e-10 |
| O=C(c1ccc(F)cc1)C1CCN(C(=O)CCCc2nc3ccc(F)cc3c(=O)[nH]2)CC1 [Compound A23, 6-Fluoro-2-{4-[4-(4-fluoro-benzoyl)-piperidin-1-yl]-4-oxo-butyl}-3H-quinazolin-4-one] | – | – | 650 | – | 8.4e-10 | 5.9e-10 |
| CC(C)(O)c1ccc(C(=O)C2CCN(C(=O)CCCc3nc4c(F)cccc4c(=O)[nH]3)CC2)cc1 [Compound A37, 8-Fluoro-2-(4-{4-[4-(1-hydroxy-1-methyl-ethyl)-benzoyl]-piperidin-1-yl}-4-oxo-butyl)-3H-quinazolin-4-one] | – | – | 4300 | – | 1.1e-08 | – |
| CC(C)(O)c1ccc(C(=O)C2CCN(C(=O)CCCc3nc4ccccc4c(=O)[nH]3)CC2)cc1 [Compound A38, 2-(4-{4-[4-(1-Hydroxy-1-methyl-ethyl)-benzoyl]-piperidin-1-yl}-4-oxo-butyl)-3H-quinazolin-4-one] | – | – | 430 | – | 2.2e-08 | 8.4e-09 |
| CC(C)(O)c1ccc(C(=O)C2CCN(C(=O)CCCc3nc4ccc(F)cc4c(=O)[nH]3)CC2)cc1 [Compound A39, 6-Fluoro-2-(4-{4-[4-(1-hydroxy-1-methyl-ethyl)-benzoyl]-piperidin-1-yl}-4-oxo-butyl)-3H-quinazolin-4-one] | – | – | 270 | – | 9.6e-09 | – |
| Cn1ccnc1C(=O)C1CCN(C(=O)CCCc2nc3ccccc3c(=O)[nH]2)CC1 [Compound A40, 2-{4-[4-(1-methyl-1H-imidazole-2-carbonyl)-piperidin-1-yl]-4-oxo-butyl}-3H-quinazolin-4-one] | 8.2e-08 | – | 3200 | – | – | 6.1e-08 |
